Data taken from patent US6951881B2, “(1-substituted-indol-3-yl) alkylidenehydrazinecarboximidamide derivatives as 5-hydroxytryptamine-6 ligands” (Wyeth, priority 2002, dated 2005).
Where a name gives a salt, the structure may show the parent alone. Read-outs that look alike come from different tables or passages of the source.

Molecular target: T1, human cloned 5-HT6 receptors (Homo sapiens, UniProt P50406)
T1 construct: expressed in transfected cells; host or cells: HeLa cells
Assay type: binding
Conditions: for % Inhibition / inhibition at 1 µM: displacement of [3H]-LSD; for Ki: [3H]-LSD 3.0 nM, Hela cell membranes, read-out: 5-HT6 Binding Ki
Procedure: This operation is repeated.
The reaction is allowed to proceed in the dark for 120 min at room temperature, at which time, the bound ligand-receptor complex is filtered off on a 96 well unifilter with a Packard Filtermate® 196 Harvester. The bound complex caught on the filter disk is allowed to air dry and the radioactivity is measured in a Packard TopCount® equipped with six photomultiplier detectors, after the addition of 40.0 μl Microscint®-20 scintillant to each shallow well. The unifilter plate is heat-sealed and counted in a PackardTopCount® with a tritium efficiency of 31.0%.
Specific binding to the 5-HT6 receptor is defined as the total radioactivity bound less the amount bound in the presence of 10.0 μM unlabeled methiothepin. Binding in the presence of varying concentrations of test compound is expressed as a percentage of specific binding in the absence of test compound. The results are plotted as logit % bound versus log concentration of test compound. Nonlinear regression analysis of data points with a computer assisted program Prism® yields both the IC50 and the Ki values of test compounds with 95% confidence limits.
The amount of displacement by the test compound is given in percent (%) inhibition and is derived from the following equation: [formula] where B0 is the amount of CPM bound in the presence of the testing agent. NSB represents the CPM bound in the presence of a saturating concentration of a displacer and TB represents the total amount of CPM bound at zero (0) concentration of test compound.
Alternatively, a linear regression line of decline of data points is plotted, from which the IC50 value can be read off and the Ki value determined by solving the following equation: [formula] where L is the concentration of the radioactive ligand used and KD is the dissociation constant of the ligand for the receptor, both expressed in nM.

T1 sequence (P50406 whole entry): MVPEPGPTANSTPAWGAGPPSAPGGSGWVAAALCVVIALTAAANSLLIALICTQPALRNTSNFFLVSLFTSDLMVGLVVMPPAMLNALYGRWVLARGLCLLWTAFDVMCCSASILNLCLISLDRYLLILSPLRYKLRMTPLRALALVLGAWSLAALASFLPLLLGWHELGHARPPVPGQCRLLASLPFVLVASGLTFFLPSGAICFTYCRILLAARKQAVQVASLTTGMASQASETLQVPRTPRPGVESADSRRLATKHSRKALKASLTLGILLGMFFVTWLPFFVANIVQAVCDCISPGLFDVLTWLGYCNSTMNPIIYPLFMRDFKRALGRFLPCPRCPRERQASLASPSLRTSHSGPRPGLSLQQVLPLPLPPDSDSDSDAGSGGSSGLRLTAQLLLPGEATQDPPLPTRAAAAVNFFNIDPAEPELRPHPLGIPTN

| Molecule | Ki | inhibition at 1 µM (test compound dose 1000 nM) | further results |
| --- | --- | --- | --- |
| 2-[3-(2-chloro-phenyl)-1-(1,2-diphenyl-1H-indol-3-yl)-allylidene]hydrazinecarboximidamide [Example 88] | – | – | % Inhibition (test compound dose 1000 nM): 37.5% |
| 2-{[2-(3-thienyl)-1H-indol-3-yl]-ethylidene}hydrazinecarboximidamide [Example 139] | – | – | % Inhibition (test compound dose 100 nM): 60.1% |
| C/C(=N\NC(=N)N)c1c[nH]c2ccc(NS(=O)(=O)c3ccccc3)cc12 [Example 7, (Z)-2-{1-[5-[(Phenylsulfonyl)amino]-1H-indol-3yl]ethylidene}hydrazinecarboximidamide Hydrochloride] | 1 nM | – | – |
| C/C(=N\NC(=N)N)c1cn(C)c2ccc(NS(=O)(=O)c3ccccc3)cc12 [Example 8, (Z)-2-{-1-[1-methyl-5-[(phenylsulfonyl)amino]-1H-indol-3-yl]ethylidene}hydrazinecarboximidamide Hydrochloride] | 2 nM | – | – |
| CC(=NNC(=N)N)c1cn(C)c2ccc(NS(=O)(=O)c3ccc(N)cc3)cc12 [Example 10] | 4 nM | 98.7% | – |
| CC(=NNC(=N)N)c1cn(C)c2ccc(NS(=O)(=O)c3sc4ccc(Cl)cc4c3C)cc12 [Example 16] | 7 nM | 98.7% | – |
| COc1ccc(S(=O)(=O)Nc2ccc3[nH]cc(C(C)=NNC(=N)N)c3c2)cc1 [Example 19] | 1 nM | 97.4% | – |
| COc1ccc(S(=O)(=O)Nc2ccc3c(c2)c(C(C)=NNC(=N)N)cn3C)cc1 [Example 20] | 3 nM | 99% | – |
| COc1ccc(S(=O)(=O)Nc2ccc3c(c2)c(C(C)=NNC(=N)N)cn3C)cc1OC [Example 23] | 3 nM | 99.4% | – |
| CC(=NNC(=N)N)c1cn(C)c2ccc(NS(=O)(=O)c3ccccc3Br)cc12 [Example 25] | 1 nM | 99% | – |
| CC(=NNC(=N)N)c1cn(C)c2ccc(NS(=O)(=O)c3ccc(Cl)cc3)cc12 [Example 29] | 4 nM | 98.4% | – |
| [H]/N=C(/N)NN=C(C)c1c[nH]c2ccc(NS(=O)(=O)c3ccc(-c4ccccc4)cc3)cc12 [Example 35, (Z)-2-[1-[5-[(4-biphenylsulfonyl)amino]-1H-indol-3-yl]ethylidene]hydrazinecarboximidamide] | – | 96.4% | – |
| N=C(N)N/N=C/c1c(-c2ccccc2)[nH]c2ccccc12 [Example 42, 2-(2-Phenyl-1H-indol-3-ylmethylene)hydrazinecarboximidamide] | – | 82.1% | – |
| C/C(=N\NC(=N)N)c1c(-c2ccccc2)[nH]c2ccccc12 [Example 43, 2-[1-(2-Phenyl-1H-indol-3-yl)ethylidene]hydrazine-carboximidamide] | – | 93.3% | – |
| N=C(N)NN=Cc1c(-c2ccc(Cl)cc2)[nH]c2ccccc12 [Example 44, 2-[2-(4-chlorophenyl)-1H-indol-3-ylmethylene]hydrazinecarboximidamide] | 18 nM | – | – |
| Clc1ccc(-c2[nH]c3ccccc3c2C=NNC2=NCCCN2)cc1 [Example 45, N-[2-(4-chlorophenyl)-1H-indol-3-ylmethylene]-N′-(1,4,5,6-tetrahydropyrimidin-2-yl)hydrazine] | – | 68.5% | – |
| CN(N=Cc1c(-c2ccc(Cl)cc2)[nH]c2ccccc12)C1=NCCN1 [Example 46, N′-[2-(4-chlorophenyl)-1H-indol-3-ylmethylene]-N-(4,5-dihydro-1H-imidazol-2-yl)-N-methylhydrazine] | 10 nM | 96.5% | – |
| Clc1ccc(-c2[nH]c3ccccc3c2C=NNC2=NCCN2)cc1 [Example 47, N-[2-(4-chlorophenyl)-1H-indol-3-ylmethylene]-N′-(4,5-dihydro-1H-imidazol-2-yl)hydrazine] | 20.2 nM | – | – |
| N=C(N)NN=Cc1c(-c2ccc(F)c(Cl)c2)[nH]c2ccccc12 [Example 48, 2-[2-(3-chloro-4-fluoro-phenyl)-1H-indol-3-ylmethylene]hydrazinecarboximidamide] | – | 88.6% | – |

| Molecule | Ki | inhibition at 1 µM (test compound dose 1000 nM) | further results |
| --- | --- | --- | --- |
| CN(N=Cc1c(-c2ccc(F)c(Cl)c2)[nH]c2ccccc12)C1=NCCN1 [Example 49, N′-[2-(3-chloro-4-fluoro-phenyl)-1H-indol-3-ylmethylene]-N-(4,5-dihydro-1H-imidazol-2-yl)-N-methylhydrazine] | – | 93.8% | – |
| CN(N=Cc1c(-c2ccccc2)[nH]c2ccccc12)C1=NCCN1 [Example 50, N-(4,5-dihydro-1H-imidazol-2-yl)-N′-(2-phenyl-1H-indol-3-ylmethylene)-N-methylhydrazine] | – | 96.2% | – |
| N=C(N)NN=Cc1c(-c2ccc3ccccc3c2)[nH]c2ccccc12 [Example 51, 2-{[2-(naphthalen-2-yl)-1H-indol-3-yl]methylene}hydrazinecarboximidamide] | 109 nM | – | – |
| N=C(N)NN=Cc1c(-c2ccc(F)cc2)[nH]c2ccccc12 [Example 52, 2-[2-(4-fluorophenyl)-1H-indol-3-ylmethylene]hydrazinecarboximidamide] | 29 nM | – | – |
| N=C(N)NN=C(Cc1ccc(Cl)cc1)c1c(-c2ccc(Cl)cc2)[nH]c2ccccc12 [Example 53, 2-{1-[2-(4-chloro-phenyl)-1H-indol-3-yl]-2-(4-chloro-phenyl)-ethylidene}hydrazinecarboximidamide] | – | 33.7% | – |
| N=C(N)NN=C(c1c(-c2ccccc2)[nH]c2ccccc12)C1CCCCC1 [Example 54, 2-[cyclohexyl-(2-phenyl-1H-indol-3-yl)-methylene]hydrazinecarboximidamide] | – | 27% | – |
| N=C(N)NN=C(c1c(-c2ccc(Cl)cc2)[nH]c2ccccc12)C1CCCCC1 [Example 55, 2-{[2-(4-chloro-phenyl)-1H-indol-3-yl]-cyclohexyl-methylene}hydrazinecarboximidamide] | – | 28.5% | – |
| N=C(N)NN=C(c1c(-c2ccc(F)c(Cl)c2)[nH]c2ccccc12)C1CCCCC1 [Example 56, 2-{[2-(3-chloro-4-fluoro-phenyl)-1H-indol-3-yl]-cyclohexyl-methylene}hydrazinecarboximidamide] | – | 33.9% | – |
| CC(C)C(=NNC(=N)N)c1c(-c2ccc(Cl)cc2)[nH]c2ccccc12 [Example 57, 2-{[2-(4-chloro-phenyl)-1H-indol-3-yl]-2-methyl-propylidene}hydrazinecarboximidamide] | – | – | % Inhibition (test compound dose 1000 nM): 74.6% |
| N=C(N)NN=C(Cc1ccccc1)c1c(-c2ccccc2)[nH]c2ccccc12 [Example 59, 2-[2-phenyl-1-(2-phenyl-1H-indol-3-yl)-ethylidene]hydrazinecarboximidamide] | – | 24.4% | – |
| N=C(N)NN=C(Cc1ccccc1)c1c(-c2ccc(Cl)cc2)[nH]c2ccccc12 [Example 60, 2-{1-[2-(4-chloro-phenyl)-1H-indol-3-yl]-2-phenyl-ethylidene}hydrazinecarboximidamide] | – | 49.5% | – |
| N=C(N)NN=C(Cc1ccccc1)c1c(-c2ccc(F)c(Cl)c2)[nH]c2ccccc12 [Example 61, 2-{1-[2-(3-chloro-4-fluoro-phenyl)-1H-indol-3-yl]-2-phenyl-ethylidene}hydrazinecarboximidamide] | – | 83.9% | – |
| CC(C)CC(=NNC(=N)N)c1c(-c2ccc(Cl)cc2)[nH]c2ccccc12 [Example 62, 2-{1-[2-(4-chloro-phenyl)-1H-indol-3-yl]-3-methyl-butylidene}hydrazinecarboximidamide] | – | 78.2% | – |
| N=C(N)NN=C(C=Cc1ccccc1Cl)c1c(-c2ccc(Cl)cc2)[nH]c2ccccc12 [Example 63, 2-{3-(2-chloro-phenyl)-1-[2-(4-chloro-phenyl)-1H-indol-3-yl]-allylidene}hydrazinecarboximidamide] | – | 31.7% | – |
| CC(=NNC(=N)N)c1c(-c2ccc(Cl)cc2)[nH]c2ccccc12 [Example 64, 2-{1-[2-(4-chloro-phenyl)-1H-indol-3-yl]-ethylidene}hydrazinecarboximidamide] | 17 nM | 98.5% | – |
| CC(=NNC(=N)N)c1c(-c2ccc(F)c(Cl)c2)[nH]c2ccccc12 [Example 65, 2-{1-[2-(3-chloro-4-fluoro-phenyl)-1H-indol-3-yl]-ethylidene}hydrazinecarboximidamide] | – | 87.2% | – |
| CN(N=C(c1ccc(Cl)cc1)c1c(-c2ccccc2)[nH]c2ccccc12)C1=NCCN1 [Example 66, N′-[(4-chlorophenyl)-(2-phenyl-1H-indol-3-yl)-methylene]-N-(4,5,-dihydro-1H-imidazol-2-yl)-N-methylhydrazine] | – | – | % Inhibition (test compound dose 1000 nM): 18.1% |
| CN(N=C(c1ccc(Cl)cc1)c1c(-c2ccc(Cl)cc2)[nH]c2ccccc12)C1=NCCN1 [Example 67, N′-{(4-chlorophenyl)-[2-(4-chlorophenyl)-1H-indol-3-yl]-methylene}-N-(4,5,-dihydro-1H-imidazol-2-yl)-N-methylhydrazine] | – | – | % Inhibition (test compound dose 1000 nM): 35.2% |
| CC(C)=CC(=NN(C)C1=NCCN1)c1c(-c2ccccc2)[nH]c2ccccc12 [Example 68, N-(4,5-dihydro-1H-imidazol-2-yl)-N-methyl-N′-[3-methyl-1-(2-phenyl-1H-indol-3-yl)-but-2-enylidene]hydrazine] | – | 24.8% | – |
